Here are results for 21 compounds from patent US7176228B2, “Pyrazole biphenylcarboxamides” (Bayer Cropscience AG, priority 2000, dated 2007).

Assay [1] deals with Gloeophyllum trabeum, Coniophora puteana, Poria placenta, Lentinus tigrinus and Coriolus versicolor. In words: Inhibition test on giant colonies of Basidiomycetes. Format: cell-based. The conditions noted are these: inhibition of hyphal growth on malt extract peptone agar at 26° C., 6 ppm active compound; read-out: % efficacy. The method, then:
Inhibition Test on Giant Colonies of Basidiomycetes Mycelium sections were removed from colonies of Gloeophyllum trabeum, Coniophora puteana, Poria placenta, Lentinus tigrinus and Coriolus versicolor and incubated on an agar medium containing malt extract peptone at 26° C. The inhibition of hyphal growth on active-compound-containing media was compared with the longitudinal growth on media without an addition of active compound and rated as per cent inhibition.

For another assay, the system named is Puccinia recondite. In words: Puccinia test (wheat) / protective. The format is in vivo. The conditions noted are these: wheat plants, protective spray, application rate 250 g/ha, evaluation 10 days after inoculation. The procedure:
Puccinia Test (wheat)/Protective [table] To produce a suitable preparation of active compound, 1 part by weight of active compound is mixed with the stated amounts of solvent and emulsifier, and the concentrate is diluted with water to the desired concentration. To test for protective activity, young plants arc sprayed with the preparation of active compound at the stated application rate. After the spray coating has dried on, the plants are sprayed with a conidia suspension of Puccinia recondite. The plants remain in an incubation cabin at 20° C. and 100% relative atmospheric humidity for 48 hours. The plants are then placed in a greenhouse at a temperature of approximately 20° C. and a relative atmospheric humidity of 80% to promote the development of rust pustules. Evaluation is carried out 10 days after the inoculation. 0% means an efficacy which corresponds to that of the control, whereas an efficacy of 100% means that no infection is observed.

The subject of the next assay is Podosphaera leucotricha. In words: Podosphaera test (apple) / protective. The format is in vivo. Particulars: 240 h, apple plants, protective spray, application rate 100 g/ha, evaluation 10 days after inoculation, read-out: % Efficacy. The method, then: Podosphaera Test (apple)/Protective Solvent: 24.5 parts by weight of acetone • 24.5 parts by weight of dimethylacetamide Emulsifier; 1.0 part by weight of alkyl-aryl polyglycol ether To produce a suitable preparation of active compound, 1 part by weight of active compound is mixed with the stated amounts of solvent and emulsifier, and the concentrate is diluted with water to the desired concentration. To test for protectiv activity, young plants are sprayed with the preparation of active compound at the stated application rate. After the spray coating has dried on, the plants are inoculated with an aqueous spore suspension of the apple mildew pathogen Podosphaera leucotricha. The plants are then placed in a greenhouse at approximately 23° C. and a relative atmospheric humidity of approximately 70%. Evaluation is carried out 10 days after the inoculation. 0% means an efficacy which corresponds to that of the control, whereas an efficacy of 100% means that no infection is observed.

The test system of the next assay is Alternaria solani. In words: Alternaria test (tomato) / protective. Format: in vivo. The conditions noted are these: tomato plants, protective spray, application rate 750 g/ha, evaluation 7 days after inoculation. The method, then: Alternaria Test (tomato)/Protective [table] To produce a suitable preparation of active compound, 1 part by weight of active compound is mixed with the stated amounts of solvent and emulsifier, and the concentrate is diluted with water to the desired concentration. To test for protective activity, young tomato plants are sprayed with the preparation of active compound at the stated application rate. 1 day after the treatment, the plants are inoculated with a spore suspension of Alternaria solani and then remain at 100% rel. humidity and 20° C. for 24 h. The plants then remain at 96% rel. atmospheric humidity and a temperature of 20° C. Evaluation is carried out 7 days after the inoculation. 0% means an efficacy which corresponds to that of the control, whereas an efficacy of 100% means that no infection is observed.

The next assay relates to Venturia inaequalis. In words: Venturia test (apple) / protective. Format: in vivo. Particulars: 288 h, apple plants, protective spray, application rate 100 g/ha, evaluation 12 days after inoculation, read-out: % Efficacy. The procedure:
Venturia Test (apple)/Protective [table] To produce a suitable preparation of active compound, 1 part by weight of active compound is mixed with the stated amounts of solvent and emulsifier, and the concentrate is diluted with water to the desired concentration. To test for protectivity activity, young plants are sprayed with the preparation of active compound at the stated application rate. After the spray coating has dried on, the plants are inoculated with an aqueous conidia suspension of the apple scab pathogen Venturia inaequalis and then remain in an incubation cabin at approximately 20° C. and 100% relative atmospheric humidity for 1 day. The plants are then placed in a greenhouse at approximately 21° C. and a relative atmospheric humidity of approximately 90%. Evaluation is carried out 12 days after the inoculation. 0% means an efficacy which corresponds to that of the control, whereas an efficacy of 100% means that no infection is observed.

In another assay the test system is Sphaerotheca fuliginea. The assay is described as follows: Sphaerotheca test (cucumber) / protective. Format: in vivo. The conditions noted are these: Podosphaera fuliginea, 240 h; cucumber plants, protective spray, application rate 100 g/ha, evaluation 10 days after inoculation; read-out: % Efficacy. The procedure: Sphacrotheca Test (cucumber)/Protective [table] To produce a suitable preparation of active compound, 1 part by weight of active compound is mixed with the stated amounts of solvent and emulsifier, and the concentrate is diluted with water to the desired concentration. To test for protectivity activity, young plants are sprayed with the preparation of active compound at the stated application rate. After the spray coating has dried on, the plants are inoculated with an aqueous spore suspension of Sphaerotheca fuliginea. The plants are then placed in a greenhouse at approximately 23° C. and a relative atmospheric humidity of approximately 70%. Evaluation is carried out 10 days after the inoculation. 0% means an efficacy which corresponds to that of the control, whereas an efficacy of 100% means that no infection is observed.

For the compound `CO/N=C/c1ccc(-c2ccccc2NC(=O)c2sc(C)nc2C(F)(F)F)cc1` [Example I-1], the Emax at 6 ppm in assay [1] is 100%. The “% Efficacy” value in the assay on Puccinia recondite and in the assay with Alternaria solani was 100% in each case. The pest or weed control at 100 g/ha in the assay with Podosphaera leucotricha, in the assay with Venturia inaequalis and in the assay on Sphaerotheca fuliginea was 100% throughout.

Consider `CO/N=C/c1cccc(-c2ccccc2NC(=O)c2sc(C)nc2C(F)(F)F)c1` [Example I-2], for which the “% Efficacy” value in the assay with Alternaria solani turned out to be 100%.

On to `CCCCO/N=C\c1ccc(-c2ccccc2NC(=O)c2sc(C)nc2C(F)(F)F)cc1` [Example I-3], for which the “% Efficacy” value in the assay on Puccinia recondite came to 100%. For the same compound, the pest or weed control at 100 g/ha with Podosphaera leucotricha, in the assay on Venturia inaequalis and in the assay with Sphaerotheca fuliginea was 100% throughout.

On to `CCO/N=C\c1ccc(-c2ccccc2NC(=O)c2sc(C)nc2C(F)(F)F)cc1` [Example I-4], for which the pest or weed control at 100 g/ha worked out at 95% in the assay with Podosphaera leucotricha, 100% in the assay with Venturia inaequalis and 93% with Sphaerotheca fuliginea.

Take `Cc1nc(C(F)(F)F)c(C(=O)Nc2ccccc2-c2ccc(/C=N\OC(C)C)cc2)s1` [Example I-5]: the pest or weed control at 100 g/ha with Podosphaera leucotricha, with Venturia inaequalis and in the assay on Sphaerotheca fuliginea was 100% each time.

As for `CO/N=C(\C)c1ccc(-c2ccccc2NC(=O)c2sc(C)nc2C(F)(F)F)cc1` [Example I-6], in the assay with Alternaria solani, the “% Efficacy” value was found to be 90%.

`CO/N=C\c1ccc(-c2ccccc2NC(=O)c2cn(C)nc2C(F)(F)F)cc1` [Example I-10]: the Emax at 6 ppm in assay [1] amounted to 100%. Moreover, in the assay with Puccinia recondite, the “% Efficacy” value amounted to 100%. In addition, the pest or weed control at 100 g/ha in the assay on Podosphaera leucotricha, with Venturia inaequalis and in the assay on Sphaerotheca fuliginea was 88% throughout.

As for `CO/N=C/c1ccc(-c2ccccc2NC(=O)c2cn(C)nc2C(F)F)cc1` [Example I-11], the Emax at 6 ppm in assay [1] was 100%. Moreover, the results for the pest or weed control at 100 g/ha with Podosphaera leucotricha, in the assay on Venturia inaequalis and with Sphaerotheca fuliginea were 93%, 100% and 95%, respectively. Also, in the assay with Alternaria solani, the “% Efficacy” value is given as 95%.

With `CO/N=C\c1ccc(-c2ccccc2NC(=O)c2cn(C)nc2C)cc1` [Example I-12], the Emax at 6 ppm in assay [1] amounted to 100%.

In the case of `CO/N=C\c1ccc(-c2ccccc2NC(=O)c2cccnc2Cl)cc1` [Example I-20], the “% Efficacy” value in the assay on Puccinia recondite came to 100%. Also, the pest or weed control at 100 g/ha in the assay with Podosphaera leucotricha, in the assay on Venturia inaequalis and in the assay with Sphaerotheca fuliginea was 100% in each case.

Take `CCCCO/N=C/c1ccc(-c2ccccc2NC(=O)c2cn(C)nc2C(F)(F)F)cc1` [Example I-22]: the pest or weed control at 100 g/ha with Podosphaera leucotricha, with Venturia inaequalis and in the assay on Sphaerotheca fuliginea was 100% each time.

As to `CCCO/N=C/c1ccc(-c2ccccc2NC(=O)c2sc(C)nc2C(F)(F)F)cc1` [Example I-23], the pest or weed control at 100 g/ha in the assay on Podosphaera leucotricha, with Venturia inaequalis and in the assay on Sphaerotheca fuliginea was 100% each time.

For the compound `CCO/N=C(/C)c1ccc(-c2ccccc2NC(=O)c2cn(C)nc2C(F)(F)F)cc1` [Example I-24], the pest or weed control at 100 g/ha is 75% in the assay with Podosphaera leucotricha, 100% with Venturia inaequalis and 92% in the assay on Sphaerotheca fuliginea.

On to `CC(C)O/N=C/c1ccc(-c2ccccc2NC(=O)c2cn(C)nc2C(F)(F)F)cc1` [Example I-26], for which the pest or weed control at 100 g/ha in the assay on Podosphaera leucotricha, in the assay on Venturia inaequalis and in the assay with Sphaerotheca fuliginea was 100% throughout.

Turning to `CCCO/N=C/c1ccc(-c2ccccc2NC(=O)c2cn(C)nc2C(F)(F)F)cc1` [Example I-28], the pest or weed control at 100 g/ha was found to be 99% with Podosphaera leucotricha, 100% in the assay with Venturia inaequalis and 100% in the assay on Sphaerotheca fuliginea.

Regarding `Cn1cc(C(=O)Nc2ccccc2-c2ccc(/C=N\O)cc2)c(C(F)(F)F)n1` [Example I-41], the pest or weed control at 100 g/ha in the assay with Podosphaera leucotricha was 98%; in the assay with Venturia inaequalis, 100%; with Sphaerotheca fuliginea, 72%.

Regarding `CO/N=C/c1ccc(-c2ccccc2NC(=O)c2sccc2C)cc1` [Example I-47], the pest or weed control at 100 g/ha in the assay on Podosphaera leucotricha, in the assay with Venturia inaequalis and in the assay with Sphaerotheca fuliginea was 100% each time.

Turning to `CO/N=C/c1ccc(-c2ccccc2NC(=O)c2cn(C)nc2C(F)(F)F)cc1Cl` [Example I-49], the “% Efficacy” value in the assay on Puccinia recondite was 100%. The pest or weed control at 100 g/ha in the assay with Podosphaera leucotricha, in the assay on Venturia inaequalis and in the assay with Sphaerotheca fuliginea was 100% in each case.

On to `CO/N=C\c1cc(-c2ccccc2NC(=O)c2cn(C)nc2C(F)(F)F)ccc1/C=N/OC` [Example I-50], for which the pest or weed control at 100 g/ha came out at 93% with Podosphaera leucotricha, 100% in the assay with Venturia inaequalis and 97% with Sphaerotheca fuliginea.

On to `CO/N=C/c1ccc(-c2c(C)cccc2NC(=O)c2sc(C)nc2C(F)(F)F)cc1` [Example I-51], for which the “% Efficacy” value with Puccinia recondite is reported as 100%. Further, the pest or weed control at 100 g/ha in the assay on Podosphaera leucotricha, in the assay with Venturia inaequalis and in the assay on Sphaerotheca fuliginea was 100% in each case.

As for `CO/N=C/c1cccc(-c2ccccc2NC(=O)c2cn(C)nc2C(F)(F)F)c1` [Example I-52], the pest or weed control at 100 g/ha in the assay on Podosphaera leucotricha came out at 77%; in the assay with Venturia inaequalis it was 100%; with Sphaerotheca fuliginea it was 97%.
